Values quoted from earlier work in patent US20120058942A1, “METHODS FOR CONTROLLING BLOOD-GLUCOSE LEVELS IN INSULIN-REQUIRING SUBJECTS” (priority 2010, published 2012).
No end group written: not given here.

Legend:
[1] = humans with diabetes mellitus
[2] = human volunteers, insulin-treated T1D

Glucagon-like peptide-1 (HAEGTFTSDVSSYLEGQAAKEFIAWLVKGR; ends and bridges not checked; UniProt P01275 98-127, looked up) [GLP-1, incretin; post-translational product of the glucagon gene in the intestinal L-cell]
stimulation of insulin secretion [1]: capable of stimulating insulin secretion
rise in blood glucose that accompanies absorption of a standard meal ([2]; continued insulin by IIT): powerfully restrict the rise in blood glucose
absorption of the meal ([2]; standard meal): delay in absorption of the meal
secretion of glucagon ([2]; standard meal): suppression of secretion of glucagon

gastric-inhibitory polypeptide (YAEGTFISDYSIAMDKIHQQDFVNWLLAQKGKKNDWKHNITQ; Gastric inhibitory polypeptide; UniProt P09681 52-93, looked up) [GIP, insulin-stimulating hormone of the entero-insular axis]
stimulation of insulin secretion [1]: failed to stimulate insulin secretion
